Data on 85 compounds can be found in a melting point compilation (Tetko et al.; mined from patent text by program, amines drawn as free bases though some values may be those of a salt).

SMILES strings stand for the structures. Residues, ends and D or L forms follow the SMILES beside them. *: point of attachment. Cbz = O=C(OCc1ccccc1)*; Boc = CC(C)(C)OC(=O)*

For the compound `CCCCNC(=O)c1nc2cnn(CC)c2nc1OCC`, the melting point – broadly, the temperature of the solid-liquid transition – was 115 to 117 °C. With `CCCCN1CCc2ccccc2C1CNC(=O)c1cc(OC)c(OC)c(OC)c1` (stereo not given) the figure was 81 to 83 °C; with `CC[C@H](C)[C@H](N)C(=O)N[C@@H](Cc1ccc(OC(C)(C)C)cc1)C(=O)N[C@@H](C)C(=O)NCc1c(OC)ccc2c1Oc1c(ccc(OC)c1CC(=O)O)C2(C)C`, 146 to 149 °C; with `COC1CC(n2cc(C=CBr)c(=O)[nH]c2=O)OC1CCl` (stereo not given), 145 °C. Compound `Clc1ccc(C(CBr)OC2CCCC(COc3ccc(Cl)cc3Cl)O2)cc1` (stereo not given) yielded a melting point of 86 to 87 °C.

Turning to `CCCCn1ccc(C=CC(=O)O)cc1=O`, the melting point lay in the range of 131 to 134 °C.

Compound `COc1ccc(C2Sc3c(ccc4ccccc34)N(CCCN(C)C)C(=O)C2OC(C)=O)cc1` (stereo not given) returned a melting point of 98 to 99 °C. Turning to `CCOC(=O)c1cn2c3c(c(F)c(F)cc3c1=O)OCC2COC(=O)c1cc([N+](=O)[O-])cc([N+](=O)[O-])c1` (stereo not given), the melting point lay in the range of 240 to 242 °C. The same measure for `CCc1cccc(C)c1CNc1cc(C(=O)N(C)C)nc2c1nc(C)n2C`: 133 to 136 °C. In the case of `O=c1ccc(-c2c(-c3ccccc3)nn3ccccc23)nn1C1CCCC(O)C1` (stereo not given), the melting point lay in the range of 117 to 118 °C. With `COc1ccc(CN2C(=O)C3(COc4cc(OC)c(C#N)cc43)c3ccccc32)cc1` (stereo not given) the figure was 207 to 208 °C.

Compound `COc1ccc(-n2cnc3ccc(C(=O)NN)cc32)cc1` came in with a melting point of 196 to 197 °C. `COc1cccnc1CCCCNc1nc(=O)c(C(O)c2ccc(C)nc2)c[nH]1` (stereo not given): the melting point turned out to be 82 °C. On to `CC(=O)Nc1ccc(C=C2C(=S)c3cc(C)ccc3OC2c2ccccc2)cc1` (stereo not given), for which the melting point is 197 to 198 °C. With `O=C(O)c1ccccc1C(=O)OC1CCN(c2cc(-c3ccccc3)nc(-c3ccccc3)n2)CC1` the figure was 96 to 98 °C; with `OCCc1nccn1CCCCc1ccc(OCc2ccccc2)cc1`, 75 to 77 °C.

For `COc1ccc2c(c1)c(=O)n1nc(C#N)cc1n2C`, the melting point lay in the range of 316 to 320 °C.

Consider `O=C(O)CCCCC[C@@H]1C[C@@H](NS(=O)(=O)c2ccc(Cl)cc2)CN1S(=O)(=O)c1ccc(Cl)cc1`, for which the melting point is 124 to 125 °C. Consider `CC1=C(C(=O)OC(C)C)C(c2cccc([N+](=O)[O-])c2)N(C(=O)NOCc2ccccc2)C(=O)N1` (stereo not given), for which the melting point lay within 166 to 167 °C. The compound `CCONC(=O)c1nc(-c2ccc(Cl)c(OC)c2F)cc(N)c1Cl` yielded a melting point of 192 to 195 °C.

Compound `CCC1(CC)C(=O)N(C(C)(C)C)CC(C)(C)N1OC(=O)C(c1ccccc1)c1ccccc1` displayed a melting point of 109 °C. Compound `Cc1csc(C2=NOCCO2)c1Br` showed a melting point of 67 °C. `CN(C)C(=O)c1cc2c(nc(C3CC3)n2C)c2c1CCC(c1ccccc1)O2` (stereo not given) returned a melting point of 176 to 179 °C. `Cc1c(-c2ccccc2)c(N2CC[C@H](N(C)C)C2)c2oc(N3CC(C)(O)C3)nc2c1C#N` displayed a melting point of 167 to 169 °C. In turn, `COC(=O)c1cc(SC(=O)N(C)C)cc(SC(=O)N(C)C)c1` registered a melting point of 128 to 130 °C. The same measure for `CSc1c[nH]c2ncnc(Cl)c12`: 166 to 167 °C; for `CCOC(=O)C(C)(C)OC(=O)c1cc(-n2c(=O)cc(CC)[nH]c2=O)c(F)cc1Cl`: 166 to 167 °C; for `Cc1ccncc1C(N)=S`: 104 to 106 °C. As for `O=c1c(CCCc2nccs2)cc2cccnc2n1-c1cccc([N+](=O)[O-])c1`, the melting point fell in the range of 198 to 199 °C. On to `CCCCCOC(=O)C1CC(=O)NN1c1ncccc1Cl` (stereo not given), for which the melting point fell in the range of 66 to 68 °C. In the case of `O=C(O)CCCNC(=O)CCCCC1CCSS1` (stereo not given), the melting point lay in the range of 56 to 58 °C.

Consider `Nc1nc(N)nc(-c2ccc(S(=O)(=O)N3CCCCC3)cc2)n1`, for which the melting point was greater than 260 °C. The compound `COc1ncc(Cl)c(C)c1Br` registered a melting point of 44 to 45 °C. With `O=CNn1cc(C(=O)O)c(=O)c2cc3c(cc21)OCO3` the figure was 302 °C. The same measure for `O=C(NS(=O)(=O)c1ccccc1)c1ccc(I)cc1`: 192 to 193 °C. The compound `CC(=O)N1C(=O)C2(CC2)c2ccc(N3C(=O)C4=C(CCCC4)C3=O)cc21` displayed a melting point of 237 to 238 °C. As to `COC(=O)C1CCC2C3CCC4CC(OC(C)=O)CCC4(C)C3C(NC3CCCCC3)CC12C` (stereo not given), the melting point was in the range of 126 to 128 °C. With `COc1cc(C2C3=C(COC3=O)Nc3ccc4cn[nH]c4c32)ccc1O` (stereo not given) the figure was 238 to 240 °C; with `COc1cc2c(cc1Nc1ncc(Cl)c(N[C@@H]3CCCC[C@H]3NS(C)(=O)=O)n1)CCN(CC(=O)N(C)C)CC2`, 92 to 97 °C. Compound `COc1cc(N2CCC(N3CCN(C)CC3)CC2)ccc1-c1nc2c(N[C@H]3[C@@H](C(N)=O)[C@@H]4C=C[C@H]3C4)c(Br)cnc2[nH]1` gave a melting point of 185 to 195 °C.

Take `CCCCC(=O)Nc1ccc([N+](=O)[O-])cc1Cl`: the melting point fell in the range of 80 to 95 °C. For the compound `CN1CCc2c(Cl)ccc3c4c(n(c23)CC1)CCCCC4`, the melting point was in the range of 132 to 134 °C.

`CCCc1cccc(C2CCCC2)c1` registered a melting point of 90 °C.

The compound `Cc1c(C(=O)O)cn(-c2ccnc3ccccc23)c1C` gave a melting point of 238 °C. In the case of `COC1=C(OC)C(OC)C(C=CC(=O)O)(OC)C=C1C` (stereo not given), the melting point lay within 117 to 118 °C. With `Nc1cccc(-c2ccc(CCN3CCN(C(=O)Nc4ccccc4)CC3)cc2)n1`, the melting point was 60 °C. Regarding `CCc1c(C)[nH]c(=O)n(-c2cc(C(=O)OC(C)C)c(Cl)cc2F)c1=O`, the melting point lay in the range of 176 to 178 °C. `CC1(C)CS(=O)(=O)CC(C)(C)[NH+]1[O-]` gave a melting point of 163 °C. Turning to `COc1ccc2[nH]cc(C3CCN(CCCCN4C(=O)CC5(CCCC5)CC4=O)CC3)c2c1`, the melting point was 150 °C. For `COC(=O)c1nc(-c2ccccn2)n2c1CN=C(c1ccccc1Cl)c1cc(Cl)ccc1-2`, the melting point lay in the range of 282 to 285 °C. The compound `COc1cccc(CCN2C(=O)c3c(C)c(C)c(C)c(C)c3C2(O)c2ccc(F)cc2)c1` (stereo not given) showed a melting point of 181 °C. As to `CCOC(=O)C1CCCCN1C(=O)[C@H](CCCNC(=N)N)NS(=O)(=O)c1ccc2cc(OC)ccc2c1` (stereo not given in full), the melting point was in the range of 192 to 193 °C. For the compound `O=C(Nc1cccc(F)c1)Nc1ccnc(C(F)(F)F)c1`, the melting point lay in the range of 165 to 167 °C. Compound `Cc1ccccc1C(=O)COc1c(C(=O)c2ccc(Cl)c(C)c2Cl)c(C)nn1C` yielded a melting point of 154 °C. Turning to `CCN(CC)CCCNC(=O)Cn1ncc(-c2ccc(N)cc2)c1-c1ccccc1`, the melting point lay within 75 to 76 °C. `CC(C)(C)OC(=O)NC(CCCCNC(=O)OCc1ccccc1)C(=O)N1CCCC1C(=O)NC(CCCNC(=N)N)C(=O)O` (stereo not drawn) (Boc-Lys(Cbz)-Pro-Arg-OH; configuration not given here): the melting point is 90 °C. On to `CSc1nc(=O)n(C(C)C)c(=O)[nH]1`, for which the melting point is 188 to 190 °C.

Take `COC(=O)c1ccc2c(c1)[C@@H](N1CCCC1=O)[C@H](O)C(C)(C)O2` (relative stereo): the melting point is 190 to 192 °C.

`O=C(O)COc1ccc(-c2c3ccc(OCC(=O)O)cc3cc3sc4ccccc4c23)cc1` registered a melting point of 245 to 246 °C. In turn, `CS(=O)c1nnc(-c2ccc3ncn(-c4ccc(OC(F)(F)F)cc4)c3c2)o1` (stereo not given) returned a melting point of 152 to 153 °C. The same measure for `Cn1c(=O)oc2c(O)cccc21`: 209 to 211 °C; for `Nc1ccc(N2CC(O)C2)nc1`: 148 to 150 °C.

For the compound `N=C(N)Nc1ccc(CCCC(=O)NC(COCc2ccccc2)C(=O)NCCCC(CCCNC(=O)OCc2ccccc2)NC(=O)OCc2ccccc2)cc1` (stereo not given), the melting point fell in the range of 157 to 160 °C.

The compound `COc1cc2ncnc(N3CCN(C(=S)Nc4cccc(NC(C)=O)c4)CC3)c2cc1OC` showed a melting point of 207 to 208 °C. The same measure for `CCOC(=O)c1ccccc1S(=O)(=O)NC(=O)Nc1nc(Cl)cc(OC(F)(F)F)n1`: 148 to 151 °C; for `Oc1ccc(-c2cc3cc(O)ccc3o2)c(-c2ccc(OCc3ccccc3)cc2)c1`: 186 to 187 °C; for `CC(=O)Nc1ccc(-c2ccc(C(=O)O)c(=O)[nH]2)cc1`: greater than 260 °C. `CCOC(=O)C(NC(=O)NN1CC(=O)NC1=O)c1ccccc1` (stereo not given) returned a melting point of 148 to 151 °C. For `CCOc1cc2cc(C(=O)OC)c(C(=O)OC)c(-c3ccncc3)c2cc1OCC`, the melting point lay in the range of 149 to 150 °C. `CCCn1c(=O)c2[nH]c(C)nc2n(CCC)c1=O` had a melting point of 202 to 203 °C. Consider `COc1ccc(C(O)CNCc2cccc(OC)c2C)cc1OC` (stereo not given), for which the melting point lay in the range of 135 to 136 °C. On to `Cn1c(CCN2CCN(Cc3ccccc3)CC2)nc2cc(Br)c3ccccc3c21`, for which the melting point was in the range of 155 to 157 °C.

`Fc1ccc(-n2ncnc2-c2ccncc2)cc1` came in with a melting point of 114 to 115 °C. The same measure for `CCCCOC(=O)c1c(CN2CCCCC2)nc2cc(OC)c(OC)cc2c1-c1ccc(OC)c(OC)c1`: 154 to 155 °C; for `O=C(O)Cc1cc(C2CC2)ccc1Nc1ccc(-c2ccc(F)cc2)cc1F`: 182 to 183 °C; for `CC(C)(C)[Si](C)(C)Oc1ccc2[nH]nc(N3C(=O)c4ccccc4C3=O)c2c1`: 225 to 228 °C.

Consider `CC(C)OC(=O)C=Cc1ccc(Br)cc1`, for which the melting point is 64 to 66 °C.

`CC(Cl)C(=O)NCCO` (stereo not given) showed a melting point of 64 °C. The same measure for `O=C1c2cc(OCc3ccccn3)ccc2CC1Cc1ccccc1` (stereo not given): 94 to 97 °C; for `O=C1NC(=O)c2c1cc1ccc3c(c1c2-c1ccc(F)cc1)OCC3`: greater than 310 °C. As to `CN1CCCCC1COC(=O)c1c[nH]c2ccccc12` (stereo not given), the melting point fell in the range of 168 to 170 °C.

For `CC(C)(C)O[C@H]1C[C@H]2CN(C3=Nc4cc(Cl)ccc4Sc4ccccc43)CCN2C1`, the melting point was in the range of 132 to 134 °C. Consider `CON=C(C(C)=NN=Cc1ccccc1-n1c(OC)nn(C)c1=O)c1cccc(C(F)(F)F)c1`, for which the melting point is 157 to 161 °C.

`CC(=O)Oc1ccc(C=CC(=O)Nc2cc(C)c(OCc3ccccc3)c(C)c2)cc1OC(C)=O` displayed a melting point of 125 to 127 °C. With `CC[C@@H](C)NC1=NS(=O)(=O)c2sc(Cl)cc2N1` the figure was 215 to 220 °C.
